Reference: ChEMBL document CHEMBL1201862, “PubChem BioAssay data set” (2004)
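Interpolation was linear, between the two tested concentrations surrounding the appropriate level; five concentrations were tested over 48 hours in 96-well plates. At the GI50, growth is halved.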 The source made the active and inactive calls. No stated cut-off is given here; in the data, active = GI50 up to about 1.1 µM and inactive = higher.

Tests used:
Assay in all cases: growth of human tumour cells (NCI), 48 h
UACC-62 = system: UACC-62
U-251 = system: U-251
A498 = system: A498
MDA-MB-435 = system: MDA-MB-435
SNB-75 = system: SNB-75
HOP-92 = system: HOP-92
HT-29 = system: HT-29
MOLT-4 = system: MOLT-4
KM12 = system: KM12
UACC-257 = system: UACC-257
SW-620 = system: SW-620
Hs-578T = system: Hs-578T
MCF7 = system: MCF7
MDA-MB-231 = system: MDA-MB-231
UO-31 = system: UO-31
K562 = system: K562
NCI-H226 = system: NCI-H226
EKVX = system: EKVX
OVCAR-5 = system: OVCAR-5
Malme-3M = system: Malme-3M

SMILES | GI50 (UACC-62) | GI50 (U-251) | GI50 (A498) | GI50 (MDA-MB-435) | GI50 (SNB-75) | GI50 (HOP-92) | GI50 (HT-29) | GI50 (MOLT-4) | GI50 (KM12) | GI50 (UACC-257) | GI50 (SW-620) | GI50 (Hs-578T) | GI50 (MCF7) | GI50 (MDA-MB-231) | GI50 (UO-31) | GI50 (K562) | GI50 (NCI-H226) | GI50 (EKVX) | GI50 (OVCAR-5) | GI50 (Malme-3M)
Cc1nc(N(C(C)C)C(C)C)c(C(C)C)o1 | > 100 µM (inactive) | > 100 µM (inactive) | > 100 µM (inactive) | > 100 µM (inactive) | > 100 µM (inactive) | > 100 µM (inactive) | > 100 µM (inactive) | > 100 µM (inactive) | > 100 µM (inactive) | > 100 µM (inactive) | > 100 µM (inactive) | > 100 µM (inactive) | > 100 µM (inactive) | > 100 µM (inactive) | > 100 µM (inactive) | > 100 µM (inactive) | > 100 µM (inactive) | > 100 µM (inactive) | > 100 µM (inactive) | > 100 µM (inactive)
COc1cc(/C=N/N=C2NCCCCN2)ccc1O | > 100 µM (inactive) | > 100 µM (inactive) | 96.2 µM (inactive) | > 100 µM (inactive) | > 100 µM (inactive) | > 100 µM (inactive) | 80 µM (inactive) | > 100 µM (inactive) | > 100 µM (inactive) | > 100 µM (inactive) | > 100 µM (inactive) | > 100 µM (inactive) | 50.2 µM (inactive) | > 100 µM (inactive) | > 100 µM (inactive) | 58.7 µM (inactive) | > 100 µM (inactive) | > 100 µM (inactive) | > 100 µM (inactive) | > 100 µM (inactive)
O=C(NCCCN(CCCCN(CCCNC(=O)C(F)(F)F)CCCc1ccccc1)CCCc1ccccc1)C(F)(F)F | 1.8 µM (inactive) | 1.6 µM (inactive) | 2.21 µM (inactive) | 1.76 µM (inactive) | 1.12 µM (active) | 1.62 µM (inactive) | 1.55 µM (inactive) | 1.8 µM (inactive) | 1.95 µM (inactive) | 1.71 µM (inactive) | 1.98 µM (inactive) | 2.02 µM (inactive) | 1.48 µM (inactive) | 1.63 µM (inactive) | 1.26 µM (inactive) | 2.87 µM (inactive) | 10.4 µM (inactive) | 1.68 µM (inactive) | 12.8 µM (inactive) | 1.75 µM (inactive)
Cc1ccc2c(c1)C(=O)/C(=C\c1ccccc1)CCS2(=O)=O | 11.9 µM (inactive) | 4.69 µM (inactive) | 19.7 µM (inactive) | 10.8 µM (inactive) | 20.6 µM (inactive) | 12.9 µM (inactive) | 9.06 µM (inactive) | 4.54 µM (inactive) | 10.5 µM (inactive) | 12.3 µM (inactive) | 15.5 µM (inactive) | 15.8 µM (inactive) | 6.21 µM (inactive) | 12.7 µM (inactive) | 10.8 µM (inactive) | 2.32 µM (inactive) | 15.7 µM (inactive) | 22.1 µM (inactive) | 19 µM (inactive) | 10.7 µM (inactive)
CC(=O)C1=C(C)N(c2ccccc2)C2(O)C3=C(C(=O)c4ccccc4C3=O)C(O)=CC12Cl (stereo not given) | 13 µM (inactive) | 4.76 µM (inactive) | 13 µM (inactive) | 2.32 µM (inactive) | 4.28 µM (inactive) | 7.08 µM (inactive) | 3.1 µM (inactive) | 3.13 µM (inactive) | 4.17 µM (inactive) | 4.71 µM (inactive) | 3.89 µM (inactive) | 4.01 µM (inactive) | 3.61 µM (inactive) | 10.7 µM (inactive) | 5.07 µM (inactive) | 6.04 µM (inactive) | 21.4 µM (inactive) | 8.51 µM (inactive) | 20 µM (inactive) | 1.88 µM (inactive)
CC1OC(OCC2OC(Oc3ccc(C4CC(=O)c5c(O)cc(O)cc5O4)cc3O)C(O)C(O)C2O)C(O)C(O)C1O (stereo not given) | > 100 µM (inactive) | > 100 µM (inactive) | > 100 µM (inactive) | > 100 µM (inactive) | > 100 µM (inactive) | > 100 µM (inactive) | > 100 µM (inactive) | > 100 µM (inactive) | > 100 µM (inactive) | > 100 µM (inactive) | > 100 µM (inactive) | > 100 µM (inactive) | > 100 µM (inactive) | > 100 µM (inactive) | > 100 µM (inactive) | > 100 µM (inactive) | > 100 µM (inactive) | > 100 µM (inactive) | > 100 µM (inactive) | > 100 µM (inactive)
CCSC1=C(C#N)C2(CCCCC2)C2=C(O)CC(C)(C)CC2=N1 | 25.6 µM (inactive) | 29.9 µM (inactive) | 24.4 µM (inactive) | 42.1 µM (inactive) | 21.9 µM (inactive) | 11.4 µM (inactive) | > 100 µM (inactive) | > 100 µM (inactive) | > 100 µM (inactive) | 5.96 µM (inactive) | > 100 µM (inactive) | 52.1 µM (inactive) | 48.3 µM (inactive) | 45.3 µM (inactive) | 16.6 µM (inactive) | > 100 µM (inactive) | 53.6 µM (inactive) | 24.3 µM (inactive) | > 100 µM (inactive) | 17.3 µM (inactive)
CNc1ccc2c(c1)Cc1ccccc1-2 | 26.8 µM (inactive) | 34.4 µM (inactive) | 20 µM (inactive) | 28.3 µM (inactive) | 52.6 µM (inactive) | 21 µM (inactive) | 30.3 µM (inactive) | 17 µM (inactive) | 36.1 µM (inactive) | 61.1 µM (inactive) | 53.6 µM (inactive) | 33.3 µM (inactive) | 44.6 µM (inactive) | 55.8 µM (inactive) | 31.1 µM (inactive) | 31.1 µM (inactive) | 78 µM (inactive) | 12.7 µM (inactive) | 98.6 µM (inactive) | 37.9 µM (inactive)
CCCCCCCCCCCNC=O | 51.2 µM (inactive) | 25.9 µM (inactive) | 22.4 µM (inactive) | 73.8 µM (inactive) | 50.8 µM (inactive) | 54.3 µM (inactive) | 37.3 µM (inactive) | 22.6 µM (inactive) | 45.3 µM (inactive) | 32.4 µM (inactive) | 48.3 µM (inactive) | 52 µM (inactive) | 37.9 µM (inactive) | 48.6 µM (inactive) | 33.8 µM (inactive) | 23.7 µM (inactive) | 94.6 µM (inactive) | 52.8 µM (inactive) | 80.9 µM (inactive) | 54 µM (inactive)
O=Cc1ccc2c(c1)CC1(C2)Cc2ccc3c(c2C1)CCC3 (stereo not given) | 6.56 µM (inactive) | 8.51 µM (inactive) | 23.8 µM (inactive) | 2.46 µM (inactive) | 7.24 µM (inactive) | 17 µM (inactive) | 19 µM (inactive) | 6.41 µM (inactive) | 11.4 µM (inactive) | 16 µM (inactive) | 3.98 µM (inactive) | 7.41 µM (inactive) | 4.43 µM (inactive) | 3.76 µM (inactive) | 11.9 µM (inactive) | 6.34 µM (inactive) | 16.3 µM (inactive) | 24.3 µM (inactive) | > 44.9 µM (inactive) | 6.22 µM (inactive)
CC(C)(C)OC(=O)c1ccc(NCC2=CC(=O)C=CC2=O)cc1 | 13.2 µM (inactive) | 14 µM (inactive) | 15.2 µM (inactive) | 12.9 µM (inactive) | 8.28 µM (inactive) | 1.93 µM (inactive) | 17.3 µM (inactive) | 1.97 µM (inactive) | 14.5 µM (inactive) | 12.3 µM (inactive) | 9.91 µM (inactive) | 15.7 µM (inactive) | 0.706 µM (active) | 8.34 µM (inactive) | 7.11 µM (inactive) | 2.75 µM (inactive) | 18.2 µM (inactive) | 14.8 µM (inactive) | 17.8 µM (inactive) | 2.89 µM (inactive)
COc1cc(C2c3cc4c(cc3OC(O)C2C)OCO4)cc(OC)c1O (stereo not given) | 3.49 µM (inactive) | 7.16 µM (inactive) | 23 µM (inactive) | 1.95 µM (inactive) | 3.29 µM (inactive) | 15.9 µM (inactive) | 4.7 µM (inactive) | 4.45 µM (inactive) | 4.76 µM (inactive) | 48.5 µM (inactive) | 4 µM (inactive) | 8.02 µM (inactive) | 4.4 µM (inactive) | 10.1 µM (inactive) | 21.3 µM (inactive) | 3.04 µM (inactive) | 17 µM (inactive) | 19.2 µM (inactive) | 46.8 µM (inactive) | 3.86 µM (inactive)
O=C(O)C1(C(=O)O)CCN(S(=O)(=O)c2ccccc2)CC1 | > 100 µM (inactive) | > 100 µM (inactive) | > 100 µM (inactive) | > 100 µM (inactive) | > 100 µM (inactive) | > 100 µM (inactive) | > 100 µM (inactive) | > 100 µM (inactive) | > 100 µM (inactive) | > 100 µM (inactive) | > 100 µM (inactive) | > 100 µM (inactive) | > 100 µM (inactive) | > 100 µM (inactive) | > 100 µM (inactive) | > 100 µM (inactive) | > 100 µM (inactive) | > 100 µM (inactive) | > 100 µM (inactive) | > 100 µM (inactive)
